From patent publication US9938322B2, “β-hairpin peptidomimetics” (priority 2013, dated 2018)
*1 amine or outer side, *2 acyl side, *3 side chain or, on linkers, in order; H or OH if unused. Where a SMILES comes first, the peptide text is derived from it. Side-chain parts run from the residue outwards. [ ]: non-standard residue; d: D form. The star is where a group is joined. Oic = O=C(O)[C@@H]1C[C@@H]2CCCC[C@@H]2N1; Pro(3S-OH) = O=C(O)[C@H]1NCC[C@@H]1O; Dap(CONH2) = NC(=O)NC[C@H](N)C(=O)O; Cha = N[C@@H](CC1CCCCC1)C(=O)O; NH(3-picolyl) = c1cncc(CN*)c1; Chg = N[C@H](C(=O)O)C1CCCCC1; Tle = CC(C)(C)[C@H](N)C(=O)O; NH(2-ClPh) = Clc1ccccc1N*; dDab = NCC[C@@H](N)C(=O)O; Orn = NCCC[C@H](N)C(=O)O; Dab = NCC[C@H](N)C(=O)O; Nva = CCC[C@H](N)C(=O)O; Dap = NC[C@H](N)C(=O)O; CO = O=C([*:1])[*:2]

How the values were obtained:
Format in all cases: cell-based
[1] = tested on: Acinetobacter baumannii DSM 30008; conditions: Mueller-Hinton II broth + 0.02% BSA, 18-20 hours at 35° C.
Description: (§1) Lyophilized peptides were weighed on a Microbalance (Mettler MT5) and dissolved in sterile water to a final concentration of 1 mg/ml. Stock solutions were kept at +4° C., light protected.
(§2) The selective antimicrobial activities of the peptides were determined in 96-well plates (Greiner, polystyrene) by the standard NCCLS broth microdilution method (National Committee for Clinical Laboratory Standards 1993. Methods for dilution antimicrobial susceptibility tests for bacteria that grow aerobically, 3rd ed. Approved standard M7-A6; National Committee for Clinical laboratory standards, Wayne, Pa.) with slight modifications. Inocula of the microorganisms were diluted into Mueller-Hinton II (MH, cation adjusted) broth+0.02% BSA and compared with a 0.5 McFarland standard to give appr. 10^6 colony forming units (CFU)/ml. Aliquots (50 μl) of inoculate were added to 50 μl of MH broth+0.02% BSA containing the peptide in serial two-fold dilutions. The following microorganisms were used to determine antibiotic selectivity of the peptides: Escherichia coli ATCC 25922, Klebsiella pneumoniae ATCC 13883 and Acinetobacter baumannii DSM 30008.

[2] = tested on: Escherichia coli ATCC 25922; conditions: Mueller-Hinton II broth + 0.02% BSA, 18-20 hours at 35° C.
Description: as §1, §2

[3] = tested on: Klebsiella pneumoniae ATCC 13883; conditions: Mueller-Hinton II broth + 0.02% BSA, 18-20 hours at 35° C.
Description: as §1, §2

[4] = tested on: human red blood cells (hRBC); experiment: Hemolysis of human red blood cells
In short: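 Washed fresh human erythrocytes (20% v/v, about 0.9×10^9 cells/ml final) incubated with peptide at 100 μg/ml for 1 h at 37° C with shaking. Supernatant OD540 read; hemolysis expressed relative to 2.5% Triton X-100 (100%) and PBS with 0.001% acetic acid (0%).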

SMILES | Hemolysis at 100 μg/ml ([4]; red cells of human, 1 h, 100) [%] | other results
C[C@@H]1NC(=O)[C@H](CNC(=O)Nc2ccccc2Cl)NC(=O)[C@@H]2CCCN2C(=O)[C@H]2CCCN2C(=O)[C@H](CO)NC(=O)[C@H](C)NC(=O)[C@H](C(C)(C)C)NC(=O)[C@H](CCN)NC(=O)[C@H](Cc2c[nH]c3ccccc23)NC(=O)[C@H](CCN)NC(=O)[C@@H](CCN)NC(=O)[C@H](CCCN)NC(=O)[C@H](CCN)NC(=O)[C@H](CC2CCCCC2)NC1=O [compound 52] (cyclo([Dap]([CO-NH(2-ClPh)])A[Cha][Dab][Orn][dDab][Dab]W[Dab][Tle]AS[dP]P)) |  | Acinetobacter baumannii DSM 30008 MIC [1]: 2 µg/mL; Escherichia coli ATCC 25922 MIC [2]: 1 µg/mL; Klebsiella pneumoniae ATCC 13883 MIC [3]: 1 µg/mL; Hemolysis at 100 μg/ml ([4]; 100 μg/ml, 20% hRBC, 1 h at 37° C.): 0%
CC[C@H](C)[C@@H]1NC(=O)[C@@H]2CCCN2C(=O)[C@H]2CCCN2C(=O)[C@H](CO)NC(=O)[C@H](C)NC(=O)[C@H](Cc2c[nH]c3ccccc23)NC(=O)[C@H](CCN)NC(=O)[C@H](Cc2c[nH]c3ccccc23)NC(=O)[C@H](CCN)NC(=O)[C@@H](CCN)NC(=O)[C@H](CCCN)NC(=O)[C@H](CCN)NC(=O)[C@H](Cc2ccc(O)cc2)NC(=O)[C@H](CO)NC1=O [compound 110] (cyclo(ISY[Dab][Orn][dDab][Dab]W[Dab]WAS[dP]P)) | 1 | 
CC[C@H](C)[C@@H]1NC(=O)[C@@H]2CCCN2C(=O)[C@H]2CCCN2C(=O)[C@H](CO)NC(=O)[C@H](C)NC(=O)[C@H](C2CCCCC2)NC(=O)[C@H](CCN)NC(=O)[C@H](Cc2c[nH]c3ccccc23)NC(=O)[C@H](CCN)NC(=O)[C@@H](CCN)NC(=O)[C@H](CCCN)NC(=O)[C@H](CCN)NC(=O)[C@H](C(C)(C)C)NC(=O)[C@H](CO)NC1=O [compound 136] (cyclo(IS[Tle][Dab][Orn][dDab][Dab]W[Dab][Chg]AS[dP]P)) | 5 | 
CC(C)C[C@@H]1NC(=O)[C@@H]2[C@@H](O)CCN2C(=O)[C@H]2CCCN2C(=O)[C@H](CO)NC(=O)[C@H](CNC(N)=O)NC(=O)[C@H](C(C)(C)C)NC(=O)[C@H](CCN)NC(=O)[C@H](Cc2c[nH]c3ccccc23)NC(=O)[C@H](CCN)NC(=O)[C@@H](CCN)NC(=O)[C@H](CCCN)NC(=O)[C@H](CCN)NC(=O)[C@H](CC2CCCCC2)NC(=O)[C@H](C)NC1=O [compound 60] (cyclo(LA[Cha][Dab][Orn][dDab][Dab]W[Dab][Tle][Dap(CONH2)]S[dP][Pro(3S-OH)])) | 1 | 
C[C@@H]1NC(=O)[C@H](C(C)(C)C)NC(=O)[C@H](CCN)NC(=O)[C@H](Cc2c[nH]c3ccccc23)NC(=O)[C@H](CCN)NC(=O)[C@@H](CCN)NC(=O)[C@H](CCCN)NC(=O)[C@H](CCN)NC(=O)[C@H](CC2CCCCC2)NC(=O)[C@H](CN)NC(=O)[C@H](Cc2c[nH]c3ccccc23)NC(=O)[C@@H]2CCCN2C(=O)[C@H]2CCCN2C(=O)[C@H](CO)NC1=O [Ex. 10] (cyclo(W[Dap][Cha][Dab][Orn][dDab][Dab]W[Dab][Tle]AS[dP]P)) | 3.5 | 
CC(C)C[C@@H]1NC(=O)[C@@H]2CCCN2C(=O)[C@H]2CCCN2C(=O)[C@H](CO)NC(=O)[C@H](C)NC(=O)[C@H](C2CCCCC2)NC(=O)[C@H](CCN)NC(=O)[C@H](Cc2c[nH]c3ccccc23)NC(=O)[C@H](CCN)NC(=O)[C@@H](CCN)NC(=O)[C@H](CCCN)NC(=O)[C@H](CCN)NC(=O)[C@H](C(C)(C)C)NC(=O)[C@H](CO)NC1=O [compound 137] (cyclo(LS[Tle][Dab][Orn][dDab][Dab]W[Dab][Chg]AS[dP]P)) | 4 | 
CC[C@H](C)[C@@H]1NC(=O)[C@@H]2CCCN2C(=O)[C@H]2CCCN2C(=O)[C@H](CO)NC(=O)[C@H](C)NC(=O)[C@H](C(C)(C)C)NC(=O)[C@H](CCN)NC(=O)[C@H](Cc2c[nH]c3ccccc23)NC(=O)[C@H](CCN)NC(=O)[C@@H](CCN)NC(=O)[C@H](CCCN)NC(=O)[C@H](CCN)NC(=O)[C@H](Cc2ccc(O)cc2)NC(=O)[C@H](C)NC1=O [compound 125] (cyclo(IAY[Dab][Orn][dDab][Dab]W[Dab][Tle]AS[dP]P)) | 0 | 
CC(C)C[C@@H]1NC(=O)[C@@H]2CCCN2C(=O)[C@H]2CCCN2C(=O)[C@H](CO)NC(=O)[C@H]([C@@H](C)O)NC(=O)[C@H](C(C)(C)C)NC(=O)[C@H](CCN)NC(=O)[C@H](Cc2c[nH]c3ccccc23)NC(=O)[C@H](CCN)NC(=O)[C@@H](CCN)NC(=O)[C@H](CCCN)NC(=O)[C@H](CCN)NC(=O)[C@H](Cc2ccc(O)cc2)NC(=O)[C@H](CCN)NC1=O [compound 148] (cyclo(L[Dab]Y[Dab][Orn][dDab][Dab]W[Dab][Tle]TS[dP]P)) | 1 | 
CC(C)C[C@@H]1NC(=O)[C@@H]2CCCN2C(=O)[C@H]2CCCN2C(=O)[C@H](CO)NC(=O)[C@H](C)NC(=O)[C@H](C(C)(C)C)NC(=O)[C@H](CCCCN)NC(=O)[C@H](Cc2c[nH]c3ccccc23)NC(=O)[C@H](CCN)NC(=O)[C@@H](CCN)NC(=O)[C@H](CCCN)NC(=O)[C@H](CCN)NC(=O)[C@H](Cc2ccc(O)cc2)NC(=O)[C@H](CO)NC1=O [compound 100] (cyclo(LSY[Dab][Orn][dDab][Dab]WK[Tle]AS[dP]P)) | 1 | 
CCC[C@@H]1NC(=O)[C@@H]2CCCN2C(=O)[C@H]2CCCN2C(=O)[C@H](CO)NC(=O)[C@H](CO)NC(=O)[C@H](C(C)(C)C)NC(=O)[C@H](CCN)NC(=O)[C@H](Cc2c[nH]c3ccccc23)NC(=O)[C@H](CCN)NC(=O)[C@@H](CCN)NC(=O)[C@H](CCCN)NC(=O)[C@H](CCN)NC(=O)[C@H](Cc2ccc(O)cc2)NC(=O)[C@H](CO)NC1=O [compound 118] (cyclo([Nva]SY[Dab][Orn][dDab][Dab]W[Dab][Tle]SS[dP]P)) | 1 | 
CC(C)[C@@H]1NC(=O)[C@H](CCN)NC(=O)[C@H](Cc2c[nH]c3ccccc23)NC(=O)[C@H](CCN)NC(=O)[C@@H](CCN)NC(=O)[C@H](CCCN)NC(=O)[C@H](CCN)NC(=O)[C@H](Cc2ccc(O)cc2)NC(=O)[C@H](CO)NC(=O)[C@H](Cc2c[nH]c3ccccc23)NC(=O)[C@@H]2CCCN2C(=O)[C@H]2CCCN2C(=O)[C@H](CO)NC(=O)[C@H](C)NC1=O [compound 72] (cyclo(WSY[Dab][Orn][dDab][Dab]W[Dab]VAS[dP]P)) | 0 | 
C[C@@H]1NC(=O)[C@H](C(C)(C)C)NC(=O)[C@H](CCN)NC(=O)[C@H](Cc2c[nH]c3ccccc23)NC(=O)[C@H](CCN)NC(=O)[C@@H](CCN)NC(=O)[C@H](CCCN)NC(=O)[C@H](CCN)NC(=O)[C@H](CC2CCCCC2)NC(=O)[C@H](CNC(=O)NCc2cccnc2)NC(=O)[C@H](Cc2c[nH]c3ccccc23)NC(=O)[C@@H]2CCCN2C(=O)[C@H]2CCCN2C(=O)[C@H](CO)NC1=O [compound 16] (cyclo(W[Dap]([CO-NH(3-picolyl)])[Cha][Dab][Orn][dDab][Dab]W[Dab][Tle]AS[dP]P)) | 7 | 
CC(C)C[C@@H]1NC(=O)[C@@H]2CCCN2C(=O)[C@H]2CCCN2C(=O)[C@H](CO)NC(=O)[C@H](Cc2ccc(O)cc2)NC(=O)[C@H](C(C)(C)C)NC(=O)[C@H](CCN)NC(=O)[C@H](Cc2c[nH]c3ccccc23)NC(=O)[C@H](CCN)NC(=O)[C@@H](CCN)NC(=O)[C@H](CCCN)NC(=O)[C@H](CCN)NC(=O)[C@H](Cc2ccc(O)cc2)NC(=O)[C@H](CC(=O)O)NC1=O [compound 112] (cyclo(LDY[Dab][Orn][dDab][Dab]W[Dab][Tle]YS[dP]P)) | 0 | 
CC(C)C[C@@H]1NC(=O)[C@@H]2[C@@H](O)CCN2C(=O)[C@H]2CCCN2C(=O)[C@H](CO)NC(=O)[C@H](C)NC(=O)[C@H](Cc2ccc(O)cc2)NC(=O)[C@H](CCN)NC(=O)[C@H](Cc2c[nH]c3ccccc23)NC(=O)[C@H](CCN)NC(=O)[C@@H](CCN)NC(=O)[C@H](CCCN)NC(=O)[C@H](CCN)NC(=O)[C@H](Cc2ccc(O)cc2)NC(=O)[C@H](CO)NC1=O [Ex. 55] (cyclo(LSY[Dab][Orn][dDab][Dab]W[Dab]YAS[dP][Pro(3S-OH)])) | 1 | 
COC[C@@H]1NC(=O)[C@H](C(C)(C)C)NC(=O)[C@H](CCN)NC(=O)[C@H](Cc2c[nH]c3ccccc23)NC(=O)[C@H](CCN)NC(=O)[C@@H](CCN)NC(=O)[C@H](CCCN)NC(=O)[C@H](CCN)NC(=O)[C@H](CC2CCCCC2)NC(=O)[C@H](C)NC(=O)[C@H](Cc2c[nH]c3ccccc23)NC(=O)[C@@H]2C[C@@H]3CCCC[C@@H]3N2C(=O)[C@H]2CCCN2C(=O)[C@H](CO)NC1=O [Ex. 54, cyclo(-Trp-Ala-Cha-Dab-Orn-^DDab-Dab-Trp-Dab-tBuGly-Ser(Me)-Ser-^DPro-Oic-)] (cyclo(A[Cha][Dab][Orn][dDab][Dab]W[Dab][Tle]S(Me)S[dP][Oic]W)) | 3 | 
C[C@@H]1NC(=O)[C@H](Cc2c[nH]c3ccccc23)NC(=O)[C@@H]2CCCN2C(=O)[C@H]2CCCN2C(=O)[C@H](CO)NC(=O)[C@H](C)NC(=O)[C@H](C(C)(C)C)NC(=O)[C@H](CCN)NC(=O)[C@H](Cc2c[nH]c3ccccc23)NC(=O)[C@H](CCN)NC(=O)[C@@H](CCN)NC(=O)[C@H](CCCN)NC(=O)[C@H](CCN)NC(=O)[C@H](Cc2ccc(O)cc2)NC1=O [compound 4] (cyclo(WAY[Dab][Orn][dDab][Dab]W[Dab][Tle]AS[dP]P)) | 1 | 
